Data reported in patent US20240002375A1, “2-(INDAZOL-5-YL)-6-(PIPERIDIN-4-YL)-1,7-NAPHTHYRIDINE DERIVATIVES AND RELATED COMPOUNDS AS MODULATORS FOR SPLICING NUCLEIC ACIDS AND FOR THE TRE” (REMIX THERAPEUTICS INC., priority 2020, published 2024).
Counter-ions that a name gives are not always drawn. Like-named read-outs stand apart in the source and are kept apart here.

Tests used:
Format in all cases: cell-based
HTT mRNA = experiment: Splicing assay (RT-qPCR) of HTT mRNA alternative junction (AJ) and canonical junction (CJ)
Outline: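 A673 (adherent, 24 h pre-plating) or K562 cells treated 24 h at 37 °C with an 11-point 3-fold dilution series, top 10 uM, DMSO ≤0.25%. Lysates analysed by one-step RT-qPCR for HTT canonical (CJ) and alternative-exon (AJ) junctions, normalised to PPIA (A673) or GAPDH/GUSB (K562).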

HTT CJ mRNA = experiment: Gene panel canonical junction qPCR splicing assay, HTT; settings: Table 4, read-out: HTT IC50 (decrease in CJ mRNA levels)
Outline: (§1)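 A673 or K562 cells treated with compound; canonical-junction mRNA measured by RT-qPCR with junction-spanning primer/probe sets, normalized to GAPDH, GUSB or PPIA and DMSO (2^−ΔΔCt). IC50 for CJ decrease from 4-parameter logistic fit of percentage response.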

SMN2 CJ mRNA = experiment: Gene panel canonical junction qPCR splicing assay, SMN2; settings: Table 4, read-out: SMN2 IC50 (decrease in CJ mRNA levels)
Outline: as §1

Target C CJ mRNA = experiment: Gene panel canonical junction qPCR splicing assay, Target C; settings: Table 4, read-out: Target C IC50 (decrease in CJ mRNA levels)
Outline: as §1

[1] = decrease in CJ mRNA, A673 or K562 cells, 24 hours, read-out: HTT CJ IC50
[2] = increase in AJ mRNA, A673 or K562 cells, 24 hours, read-out: HTT AJ AC50

Row | IC50 (HTT mRNA; [1]) [nM] | IC50 (HTT CJ mRNA) [nM] | IC50 (SMN2 CJ mRNA) [nM] | IC50 (Target C CJ mRNA) [nM] | Structure (SMILES) | AC50 (HTT mRNA; [2]) [nM] | AC50 (HTT mRNA; 24 h, read-out: HTT AJ AC50 (nM)) [nM] | IC50 (HTT mRNA; 24 h, read-out: HTT CJ IC50 (nM)) [nM]
1 | 100 to 1000 | 100 to 1000 | < 100 | 1000 to 10000 | Cn1cc2cc(-c3ccc4nc(N5CCC6(CCN6)C5)ccc4n3)c(O)cc2n1 (stereo not drawn) [Compound 178, 5-(6-{1,6-diazaspiro[3.4]octan-6-yl}-1,5-naphthyridin-2-yl)-2-methylindazol-6-ol] | 100 to 1000 | – | –
2 | < 100 | < 100 | < 100 | 100 to 1000 | CCN[C@H]1CCN(c2ccc3nc(-c4cc5cn(C)nc5cc4O)ccc3n2)C1 [Compound 179] | < 100 | – | –
3 | < 100 | < 100 | < 100 | 100 to 1000 | CCN[C@@H]1CCN(c2ccc3nc(-c4cc5cn(C)nc5cc4O)ccc3n2)C1 [Compound 180] | 100 to 1000 | – | –
4 | 1000 to 10000 | 1000 to 10000 | 1000 to 10000 | > 10000 | Cn1cc2cc(-c3ccc4nc(N5CC[C@H](NCC(F)(F)F)C5)ccc4n3)c(O)cc2n1 [Compound 182, 2-methyl-5-{6-[(3S)-3-[(2,2,2-trifluoroethyl)amino]pyrrolidin-1-yl]-1,5-naphthyridin-2-yl}indazol-6-ol] | > 10000 | – | –
5 | 100 to 1000 | 100 to 1000 | < 100 | 1000 to 10000 | Cn1cc2cc(-c3ccc4nc(N5CC[C@@H](NC6COC6)C5)ccc4n3)c(O)cc2n1 [Compound 188] | 100 to 1000 | – | –
6 | > 10000 | > 10000 | < 100 | > 10000 | Cc1nc2cc(O)c(-c3ccc4nc(N5CCC(NC(C)(C)C)C5)ccc4n3)cc2s1 (stereo not drawn) [Compound 190, 6-{6-[3-(tert-butylamino)pyrrolidin-1-yl]-1,5-naphthyridin-2-yl}-2-methyl-1,3-benzothiazol-5-ol; trifluoroacetic acid] | > 10000 | – | –
7 | < 100 | > 10000 | > 10000 | > 10000 | Cc1c(O)c(-c2ccc3nc(N4CCC(NC(C)(C)C)C4)ccc3n2)cc2cn(C)nc12 (stereo not drawn) [Compound 191, 5-{6-[3-(tert-butylamino)pyrrolidin-1-yl]-1,5-naphthyridin-2-yl}-2,7-dimethylindazol-6-ol hydrochloride] | < 100 | – | –
8 | > 10000 | > 10000 | > 10000 | > 10000 | CN1CCCC2(CCN2c2ccc3nc(-c4cc5cn(C)nc5cc4O)ccc3n2)C1 (stereo not drawn) [Compound 192, 2-methyl-5-(6-{6-methyl-1,6-diazaspiro[3.5]nonan-1-yl}-1,5-naphthyridin-2-yl) indazol-6-ol] | > 10000 | – | –
9 | 1000 to 10000 | 1000 to 10000 | 1000 to 10000 | 1000 to 10000 | Cn1cc2cc(-c3ccc4nc(C5CCNCC5)ccc4n3)c(F)cc2n1 [Compound 193, 2-(6-fluoro-2-methylindazol-5-yl)-6-(piperidin-4-yl)-1,5-naphthyridine] | 1000 to 10000 | – | –
10 | < 100 | < 100 | < 100 | < 100 | Cn1cc2cc(-c3ccc4nc(N5CC[C@H](NCC6CC6)C5)ccc4n3)c(O)cc2n1 [Compound 194] | < 100 | – | –
11 | 100 to 1000 | 100 to 1000 | < 100 | 100 to 1000 | Cn1cc2cc(-c3ccc4nc(N5CC[C@@H](NCC6CC6)C5)ccc4n3)c(O)cc2n1 [Compound 195] | < 100 | – | –
12 | < 100 | < 100 | < 100 | 100 to 1000 | Cn1cc2cc(-c3ccc4nc(N5CC[C@H](NC6CC6)C5)ccc4n3)c(O)cc2n1 [Compound 197, 5-{6-[(35)-3-(cyclopropylamino)pyrrolidin-1-yl]-1,5-naphthyridin-2-yl}-2-methylindazol-6-ol] | < 100 | – | –
13 | < 100 | < 100 | < 100 | 100 to 1000 | Cn1cc2cc(-c3ccc4nc(N5CC[C@@H](NC6CC6)C5)ccc4n3)c(O)cc2n1 [Compound 198] | < 100 | – | –
14 | < 100 | < 100 | > 10000 | < 100 | Cn1cc2cc(-c3ccc4nc(N5CCC(NC(C)(C)C)C5)ccc4n3)c(O)c(F)c2n1 (stereo not drawn) [Compound 202] | < 100 | – | –

The remaining lines, values behind:

Row | Structure (SMILES) | IC50 (HTT mRNA; [1]) [nM] | IC50 (HTT CJ mRNA) [nM] | IC50 (SMN2 CJ mRNA) [nM] | IC50 (Target C CJ mRNA) [nM] | AC50 (HTT mRNA; [2]) [nM] | AC50 (HTT mRNA; 24 h, read-out: HTT AJ AC50 (nM)) [nM] | IC50 (HTT mRNA; 24 h, read-out: HTT CJ IC50 (nM)) [nM]
15 | Cn1cc2cc(-c3ccc4nc(C5CCNCC5)ccc4n3)ccc2n1 [Compound 184, 2-(2-methylindazol-5-yl)-6-(piperidin-4-yl)-1,5-naphthyridine] | 1000 to 10000 | 1000 to 10000 | < 100 | 100 to 1000 | 100 to 1000 | – | –
16 | Cn1cc2cc(-c3ccc4nc(C5CCNCC5)ccc4n3)cc(F)c2n1 [Compound 185, 2-(7-fluoro-2-methylindazol-5-yl)-6-(piperidin-4-yl)-1,5-naphthyridine] | 1000 to 10000 | 1000 to 10000 | 100 to 1000 | 1000 to 10000 | 1000 to 10000 | – | –
17 | Cc1cn2nc(-c3ccc4nc(N5CCC(NC(C)(C)C)C5)ccc4n3)cc(C)c2n1 (stereo not drawn) [Compound 186, N-tert-butyl-1-(6-{2,8-dimethylimidazo[1,2-b]pyridazin-6-yl}-1,5-naphthyridin-2-yl)pyrrolidin-3-amine] | – | < 100 | < 100 | < 100 | – | < 100 | < 100
18 | Cc1cn2nc(-c3ccc4nc(N5CCC(NC(C)(C)C)C5)ccc4n3)cc2c(C)n1 (stereo not drawn) [Compound 187] | < 100 | < 100 | < 100 | < 100 | < 100 | – | –
19 | Cn1cc2cc(-c3ccc4nc(C5CCNCC5)ccc4n3)c(C(F)F)cc2n1 [Compound 196, 2-[6-(difluoromethyl)-2-methylindazol-5-yl]-6-(piperidin-4-yl)-1,5-naphthyridine] | > 10000 | > 10000 | 1000 to 10000 | > 10000 | > 10000 | – | –
20 | Cn1cc2nc(-c3ccc4nc(C5CCNCC5)ccc4n3)ccc2n1 [Compound 199, 2-{2-methylpyrazolo[4,3-b]pyridin-5-yl}-6-(piperidin-4-yl)-1,5-naphthyridine] | 100 to 1000 | 100 to 1000 | 100 to 1000 | 100 to 1000 | 100 to 1000 | – | –
21 | Cn1cc2cc(-c3ccc4nc(C5CCNCC5)ccc4n3)ncc2n1 [Compound 200] | 1000 to 10000 | 1000 to 10000 | 1000 to 10000 | 1000 to 10000 | 1000 to 10000 | – | –
22 | Cc1cn2cc(-c3ccc4nc(N5CCC(NC(C)(C)C)C5)ccc4n3)cc(C)c2n1 (stereo not drawn) [Compound 201] | 100 to 1000 | 100 to 1000 | < 100 | 100 to 1000 | 100 to 1000 | – | –
23 | Cc1cn2nc(-c3ccc4nc(N5CCC(NC(C)(C)C)C5)ccc4n3)c(O)c2c(C)n1 (stereo not drawn) [Compound 203, 2-{6-[3-(tert-butylamino)pyrrolidin-1-yl]-1,5-naphthyridin-2-yl}-4,6-dimethylpyrazolo[1,5-a]pyrazin-3-ol] | < 100 | < 100 | < 100 | < 100 | < 100 | – | –
24 | Cn1cc2cc(-c3ccc4nc(C5CCNCC5)ccc4n3)c(C#N)cc2n1 [Compound 204, 2-methyl-5-[6-(piperidin-4-yl)-1,5-naphthyridin-2-yl]indazole-6-carbonitrile] | 1000 to 10000 | 1000 to 10000 | 100 to 1000 | > 10000 | 1000 to 10000 | – | –
